Measurements as given in US20050192279A1, “Pyridazinones as antagonists of alpha4 integrins” (priority 2004, published 2005).

Columns and labels:
α4β1 = target: T1, α4β1 (Homo sapiens, UniProt P05556+P13612); experiment: Ramos Cell Adhesion Assay (α4β1 Mediated Adhesion/VCAM-1); format: cell-based; settings: Ramos cell adhesion to hVCAM-1; read-out: α4β1 IC50
T1 construct: Ramos Cell Adhesion Assay (α4β1 Mediated Adhesion/VCAM-1); endogenous in cells; host or cells: Ramos cells
Procedure, shortened: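 Plates coated overnight at 4° C with recombinant hVCAM-1 at 4.0 μg/mL, pH 9.0, then blocked in PBS/1% BSA. Calcein AM-labeled Ramos cells added with compounds and left to adhere 1 h at room temperature; after washing, cells lysed in 1 M Tris pH 8.0/1% SDS.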

TNBS induced colitis = experiment: Trinitrobenzenesulfonic acid (TNBS) Induced Colitis, rats; format: in vivo, Male Wistar rats; settings: 30 mg/kg po bid, rat
Description: In Vivo Model: Trinitrobenzenesulfonic acid (TNBS) Induced Colitis The TNBS model of experimental colitis (Bobin-Dubigeon, C., Collin, X., Grimaud, N., Robert, J-M., Guillaume Le Baut, G., and Petit, J-Y. Effects of tumour necrosis factor-a synthesis inhibitors on rat trinitrobenzene sulphonic acid-induced chronic colitis. Eur. J. […] These symptomatic signs in the above—mentioned models are similar to what occur in human colitis. Male Wistar rats (200-250 g) are inoculated with 500 microliters of a solution of 10 to 20 mg of TNBS in 30% ethanol delivered intracolonically via catheter or ball-tipped gavage needle to the 8th cm from the anus. When Balb/c female mice (8-12 weeks of age) were used, the inoculation volume was 50 microliters containing 2-3 mg of TNBS in 30% ethanol delivered intracolonically via catheter or ball-tipped gavage needle to the 4th cm from the anus. During the ensuing 7 days, test animals were administered a preparation of an experimental compound. This material may be administered orally, subcutaenously or intraperitoneally, once or twice daily. At the end of this period, the animals were euthanized and their colons were collected for further analysis. Among the parameters analyzed were the length of the colon starting from the anus to the top of the cecum, the weight of the colon, the consistency of any stools found within the colon, the presence or absence of intraperitoneal adhesions on the serosal surfacr of the intestin, and the gross macroscopic appearance of the colon. […] In rats, the distal colon between the 5th and the 8th centimeter is dissected and placed in 10% neutral buffered formalin for later histological analysis. In mice, the 1st to the 4th cm was collected for histological analyses. For the following parameters—colon length, colon weight, stool consistency and appearance and macroscopic damage—a scoring system was used to describe the changes. The four scores for each animal were added to provide a Total Score. […] For the presence of blood in stool, one point was added to scores <3. […] Histological analyses of tissues consisted of staining paraffin-embedded tissue sections with hematoxylin-eosin dye. Epithelial damage scores were determined as the fraction of the tissue section showing damaged epithelium. […] Statistic analyses for these experiments performed with Graphpad Prism 4.0, using ANOVA, with Dunnets or Bonferroni's multiple comparisons test.

human α4β7 integrin = target: T2, human α4β7 integrin (Homo sapiens, UniProt P13612+P26010); experiment: α4β7-K562 Cell Adhesion Assay (α4β7 Mediated Adhesion/MAdCAM-1); format: cell-based; settings: α4β7-K562 cell adhesion to hMAdCAM-1; read-out: α4β7 IC50
T2 construct: expressed in transfected cells; host or cells: K562 cells, stably transfected
T2 sequence (P13612 34-1032): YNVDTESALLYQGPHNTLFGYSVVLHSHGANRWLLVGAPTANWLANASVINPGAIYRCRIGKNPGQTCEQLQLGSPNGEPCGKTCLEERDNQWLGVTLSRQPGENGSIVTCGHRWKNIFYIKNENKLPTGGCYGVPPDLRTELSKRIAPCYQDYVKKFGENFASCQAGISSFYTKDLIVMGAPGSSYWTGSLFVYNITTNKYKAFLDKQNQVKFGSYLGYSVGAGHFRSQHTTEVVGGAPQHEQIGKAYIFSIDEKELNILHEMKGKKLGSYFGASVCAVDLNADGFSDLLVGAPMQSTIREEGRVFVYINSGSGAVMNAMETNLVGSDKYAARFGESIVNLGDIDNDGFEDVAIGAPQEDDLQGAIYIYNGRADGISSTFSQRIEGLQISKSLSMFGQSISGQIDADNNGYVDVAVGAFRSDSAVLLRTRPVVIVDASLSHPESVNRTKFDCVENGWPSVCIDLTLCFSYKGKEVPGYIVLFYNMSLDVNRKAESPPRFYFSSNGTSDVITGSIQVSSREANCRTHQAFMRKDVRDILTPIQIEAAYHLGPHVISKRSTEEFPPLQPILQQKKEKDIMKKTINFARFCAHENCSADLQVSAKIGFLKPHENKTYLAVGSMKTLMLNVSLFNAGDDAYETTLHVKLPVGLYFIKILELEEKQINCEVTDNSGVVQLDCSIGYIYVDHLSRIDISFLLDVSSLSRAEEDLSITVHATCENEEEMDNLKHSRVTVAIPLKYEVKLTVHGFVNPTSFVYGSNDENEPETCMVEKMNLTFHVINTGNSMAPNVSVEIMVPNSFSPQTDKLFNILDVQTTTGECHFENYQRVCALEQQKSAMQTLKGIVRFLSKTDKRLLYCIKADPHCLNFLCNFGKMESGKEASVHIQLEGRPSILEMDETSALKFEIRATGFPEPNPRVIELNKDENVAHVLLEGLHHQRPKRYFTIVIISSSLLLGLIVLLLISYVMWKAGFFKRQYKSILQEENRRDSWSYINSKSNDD
T2 sequence (P26010 20-798): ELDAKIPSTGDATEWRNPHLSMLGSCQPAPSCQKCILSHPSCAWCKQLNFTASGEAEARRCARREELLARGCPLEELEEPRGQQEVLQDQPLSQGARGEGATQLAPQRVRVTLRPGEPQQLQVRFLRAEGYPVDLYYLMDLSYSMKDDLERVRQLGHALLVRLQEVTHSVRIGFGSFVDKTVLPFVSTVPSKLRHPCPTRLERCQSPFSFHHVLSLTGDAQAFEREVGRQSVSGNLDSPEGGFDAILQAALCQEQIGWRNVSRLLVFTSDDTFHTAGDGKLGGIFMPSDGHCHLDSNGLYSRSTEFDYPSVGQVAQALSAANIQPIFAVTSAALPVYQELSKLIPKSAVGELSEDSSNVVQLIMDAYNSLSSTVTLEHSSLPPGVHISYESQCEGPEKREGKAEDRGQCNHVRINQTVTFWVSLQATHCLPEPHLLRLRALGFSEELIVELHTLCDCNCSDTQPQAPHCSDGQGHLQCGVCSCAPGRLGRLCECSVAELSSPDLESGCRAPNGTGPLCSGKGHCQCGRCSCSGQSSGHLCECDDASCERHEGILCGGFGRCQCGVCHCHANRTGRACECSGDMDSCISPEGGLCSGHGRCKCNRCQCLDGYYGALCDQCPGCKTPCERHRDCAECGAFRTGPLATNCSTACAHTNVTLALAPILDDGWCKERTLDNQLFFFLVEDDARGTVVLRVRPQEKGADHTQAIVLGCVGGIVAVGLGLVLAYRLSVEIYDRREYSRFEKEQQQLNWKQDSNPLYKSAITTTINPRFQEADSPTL
Procedure, shortened: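 Anti-FLAG plates coated 1 h at 4° C with FLAG-hMAdCAM-1 in PBS pH 7.4, 1% BSA, 1 mM Mn2+. Stably transfected K562 cells expressing human α4β7, labelled with CFDA-SE, adhered with compound 1 h at room temperature. After four washes, bound cells lysed in 0.1 M NaOH for fluorescence read-out.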

T1 sequence (P05556 21-798, one chain of several): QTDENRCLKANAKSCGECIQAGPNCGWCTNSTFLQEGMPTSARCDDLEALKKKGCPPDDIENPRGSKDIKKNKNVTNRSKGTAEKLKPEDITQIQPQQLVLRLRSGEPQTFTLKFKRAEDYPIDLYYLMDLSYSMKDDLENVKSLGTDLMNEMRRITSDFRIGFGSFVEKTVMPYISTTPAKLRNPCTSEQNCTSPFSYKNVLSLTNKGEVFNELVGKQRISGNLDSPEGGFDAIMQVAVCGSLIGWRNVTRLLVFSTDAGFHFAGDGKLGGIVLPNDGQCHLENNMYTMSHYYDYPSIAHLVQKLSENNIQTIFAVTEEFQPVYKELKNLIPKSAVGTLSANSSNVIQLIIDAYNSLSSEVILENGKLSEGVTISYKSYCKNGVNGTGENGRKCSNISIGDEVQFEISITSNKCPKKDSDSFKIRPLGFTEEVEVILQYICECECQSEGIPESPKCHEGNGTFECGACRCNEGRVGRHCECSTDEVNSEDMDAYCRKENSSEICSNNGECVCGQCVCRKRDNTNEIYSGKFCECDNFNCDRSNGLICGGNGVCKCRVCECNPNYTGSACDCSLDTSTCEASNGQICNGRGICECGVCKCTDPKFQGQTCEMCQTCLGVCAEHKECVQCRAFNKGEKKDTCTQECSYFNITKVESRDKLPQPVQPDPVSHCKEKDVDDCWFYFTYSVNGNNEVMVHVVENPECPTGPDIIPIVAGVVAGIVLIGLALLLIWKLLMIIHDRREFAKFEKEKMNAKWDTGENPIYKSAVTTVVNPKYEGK

Row | SMILES | IC50 (α4β1) | % Inhibition of Epithelial Damage Score (TNBS induced colitis) | % Inhibition of Total Macroscopic Score (TNBS induced colitis) | IC50 (human α4β7 integrin)
1 | COc1cnn(C)c(=O)c1-c1ccc(C[C@H](NC(=O)c2cc(F)ccc2Cl)C(=O)OCCO)cc1 [Cpd 2] | > 5 µM | 10.25% | −0.885% | –
2 | COc1cnn(C)c(=O)c1-c1ccc(C[C@H](NC(=O)C2(NC3CCC4(CC3)OCCO4)CC2)C(=O)O)cc1 [Cpd 224] | > 5 µM | – | – | 0.014 µM
3 | COc1cnn(C)c(=O)c1-c1ccc(C[C@H](NC(=O)C2(NC3CCCC3)CC2)C(=O)O)cc1 [Cpd 225] | 0.472 µM | – | – | 0.013 µM
4 | COc1cnn(C)c(=O)c1-c1ccc(C[C@H](NC(=O)C2(NC(C)=O)CC2)C(=O)O)cc1 [Cpd 227] | > 5 µM | – | – | 0.219 µM
5 | COc1cnn(CC(C)=O)c(=O)c1-c1ccc(C[C@H](NC(=O)c2c(Cl)cccc2Cl)C(=O)O)cc1 [Cpd 228] | 0.535 µM | – | – | 0.006 µM
6 | COc1cnn(C)c(=O)c1-c1ccc(C[C@H](NC(=O)C(C)(C)NC(N)=O)C(=O)O)cc1 [Cpd 229] | > 5 µM | – | – | 0.089 µM
